Earlier results, collected in patent US20040128703A1, “Methods and compositions for the generation of humanized mice” (priority 2002, published 2004).
Read-outs that look alike come from different tables or passages of the source.

Key:
[1] = test system: CYP3A expression in rat hepatocytes
human PXR [2] = target: T1, human PXR (Homo sapiens, UniProt O75469); details: transgenic mice, native PXR partially deleted, human PXR gene targeted to the liver
T1 sequence (O75469 1-434): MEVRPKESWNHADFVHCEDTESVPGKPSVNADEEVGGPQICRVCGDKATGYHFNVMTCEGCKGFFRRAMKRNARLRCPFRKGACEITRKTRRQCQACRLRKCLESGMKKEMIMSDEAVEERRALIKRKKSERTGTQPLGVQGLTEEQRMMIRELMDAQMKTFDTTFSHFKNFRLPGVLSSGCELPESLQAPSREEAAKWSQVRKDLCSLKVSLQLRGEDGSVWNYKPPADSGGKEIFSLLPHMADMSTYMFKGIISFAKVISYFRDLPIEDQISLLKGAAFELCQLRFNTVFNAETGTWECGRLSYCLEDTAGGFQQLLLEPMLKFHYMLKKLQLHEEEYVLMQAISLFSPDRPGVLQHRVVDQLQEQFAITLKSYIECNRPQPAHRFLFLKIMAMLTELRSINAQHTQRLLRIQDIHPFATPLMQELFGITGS

human PXR [3] = target: T1, human PXR; details: human PXR transfected into rat hepatocytes

SMILES | effect on CYP3A expression in rat hepatocytes [1] | CYP3A4 expression in human liver (CYP3A4 expression) | CYP3A expression in rat hepatocytes transfected with human PXR (human PXR [3]) | P-glycoprotein induction (P-glycoprotein) | also measured
Clc1ccccc1C(c1ccccc1)(c1ccccc1)n1ccnc1 [clotrimazole] | no effect | stimulate CYP3A4 expression | able to stimulate CYP3A expression | – | CYP3A expression in the mouse (human PXR [2]): induced CYP3A expression
CCC1(c2ccccc2)C(=O)NC(=O)NC1=O [phenobarbital] | no effect | stimulate CYP3A4 expression | able to stimulate CYP3A expression | – | –
CCOP(=O)(OCC)C(=Cc1cc(C(C)(C)C)c(O)c(C(C)(C)C)c1)P(=O)(OCC)OCC [SR12813] | – | – | – | induced | –
CC(=O)O[C@H]1C(=O)[C@@]2(C)[C@H]([C@H](OC(=O)c3ccccc3)[C@]3(O)C[C@H](OC(=O)[C@H](O)[C@@H](NC(=O)c4ccccc4)c4ccccc4)C(C)=C1C3(C)C)[C@]1(OC(C)=O)CO[C@@H]1C[C@@H]2O [Taxol] | – | – | – | induced | –
O=C(O)c1cn(C2CC2)c2cc(N3CCNCC3)c(F)cc2c1=O [Ciprofloxacin] | – | – | – | – | susceptibility of bacteria (gram-negative bacilli; 1994, US): 86%; susceptibility of bacteria (gram-negative bacilli; 2000, US): 76%
